Where “and” joins values, the source holds several entries; their conditions need not be identical. Equal values may be shown once.
What was measured:
Assay type in all cases: toxicity, cell-based
Fibroblast = experiment: Incucyte cell viability with human fibroblast; settings: 10 µM, compound concentration 10 uM
U2OS = experiment: Incucyte cell viability with U2OS; settings: human, 10 µM, compound concentration 10 uM
HEK-293T = experiment: Incucyte cell viability with HEK293T; settings: human, 10 µM, compound concentration 10 uM
Note: unitless GR value; below 1 slowed growth and below 0 cell loss.

Compound | Growth Rate (Fibroblast; 0 h, replicate number 2) | Growth Rate (Fibroblast; 12 h, replicate number 2) | Growth Rate (Fibroblast; 24 h, replicate number 1) | Growth Rate (U2OS; 0 h, replicate number 1) | Growth Rate (U2OS; 6 h, replicate number 1) | Growth Rate (U2OS; 12 h, replicate number 2) | Growth Rate (U2OS; 18 h, replicate number 1) | Growth Rate (U2OS; 18 h, replicate number 2) | Growth Rate (U2OS; 24 h, replicate number 1) | Growth Rate (U2OS; 24 h, replicate number 2) | Growth Rate (HEK-293T; 6 h, replicate number 1) | Growth Rate (HEK-293T; 12 h, replicate number 1) | Growth Rate (HEK-293T; 18 h, replicate number 1) | Growth Rate (HEK-293T; 24 h, replicate number 1) | Growth Rate (HEK-293T; 24 h, replicate number 2) | Growth Rate (Fibroblast; 18 h, replicate number 1) | Growth Rate (U2OS; 12 h, replicate number 1) | Growth Rate (HEK-293T; 6 h, replicate number 2) | Growth Rate (HEK-293T; 12 h, replicate number 2) | Growth Rate (HEK-293T; 18 h, replicate number 2) | also measured
COc1ccc2c(O[C@@H]3C[C@H]4C(=O)N[C@]5(C(=O)O)CC5/C=C\CCCCC[C@H](NC(=O)OC5CCCC5)C(=O)N4C3)cc(-c3csc(NC(=O)C(C)C)n3)nc2c1C (some centres not stated) [BI 1230] | 0.45 | -0.04 and -0.05 | 0.07 and 0.17 | 0.55 | 0.71 and 0.63 | 0.86 | 0.65 and 0.86 | 0.98 | 0.77 and 0.99 | 0.95 | 0.86 and 0.76 | 0.92 and 0.77 | 0.86 and 0.65 | 0.7 | 0.34 and 0.67 |  |  |  |  |  | Growth Rate (Fibroblast; 12 h, replicate number 1): 0.15 and 0.2; Growth Rate (U2OS; 6 h, replicate number 2): 0.86
COc1cc2nc(-c3cc(F)ccc3O)nc(N[C@@H]3CNC[C@H]3C(C)(C)O)c2cc1OC.Cl.Cl | 0.21 |  | 0.06 | -0.66 |  | -0.46 and -0.33 | -0.4 and -0.47 | -0.37 and -0.32 | -0.35 and -0.37 | -0.34 and -0.27 | -0.41 and -0.9 | -0.39 and -0.88 | -0.28 and -0.69 | -0.23 and -0.61 | -0.33 and -0.39 | 0.18 | -0.39 and -0.54 | -0.53 | -0.5 and -0.73 | -0.42 and -0.53 | Growth Rate (Fibroblast; 0 h, replicate number 1): -1; Growth Rate (Fibroblast; 6 h, replicate number 1): -0.98; Growth Rate (Fibroblast; 6 h, replicate number 2): -1
CN1CCN(c2ccc(C(=O)Nc3n[nH]c4ccc(Cc5cc(F)cc(F)c5)cc34)c(NC3CCOCC3)c2)CC1 [ENTRECTINIB] |  | -0.97 | -0.82 |  | -0.92 | -0.45 | -0.64 | -0.56 | -0.66 | -0.6 | -0.98 | -0.89 | -0.67 | -0.54 | -0.42 | -0.92 | -0.62 | -0.99 | -0.8 | -0.58 | Growth Rate (Fibroblast; 0 h, replicate number 1): -0.42; Growth Rate (Fibroblast; 6 h, replicate number 2): -1; Growth Rate (Fibroblast; 18 h, replicate number 2): -0.89; Growth Rate (Fibroblast; 24 h, replicate number 2): -0.77; Growth Rate (U2OS; 0 h, replicate number 2): -1; Growth Rate (U2OS; 6 h, replicate number 2): -0.57
CN[C@@H](C)C(=O)N[C@H](C(=O)N1CCC[C@H]1C(=O)N[C@@H]1CCCc2ccccc21)C1CCCCC1.Cl |  | 0.89 | 0.72 | 0.24 | 0.97 |  |  |  |  |  |  | 0.81 |  |  | 0.88 | 0.75 | 0.89 | 0.63 | 0.9 | 0.87 | Growth Rate (Fibroblast; 12 h, replicate number 1): 0.76; Growth Rate (HEK-293T; 0 h, replicate number 2): -0.36
O=C(Nc1ccc(S(=O)(=O)Nc2nccs2)cc1)C(c1ccccc1)c1ccccc1 | -0.85 | 0.85 |  |  |  | 0.82 |  |  | 0.94 |  | 0.94 |  |  | 0.88 | 0.9 | 0.49 | 0.81 | 0.52 |  | 0.82 | Growth Rate (HEK-293T; 0 h, replicate number 1): 0.71
CCC(=O)Nc1cc(Nc2cc(NC3CC3)n3ncc(C#N)c3n2)ccc1C |  | 0.67 | 0.48 | -1 | 0.24 | 0.52 | 0.39 | 0.54 | 0.44 | 0.53 | 0.87 | 0.79 | 0.79 | 0.81 | 0.83 | 0.33 | 0.12 | 0.94 | 0.59 | 0.83 | Growth Rate (Fibroblast; 6 h, replicate number 1): 0.76; Growth Rate (Fibroblast; 6 h, replicate number 2): 0.41; Growth Rate (Fibroblast; 12 h, replicate number 1): 0.46; Growth Rate (Fibroblast; 18 h, replicate number 2): 0.61; Growth Rate (Fibroblast; 24 h, replicate number 2): 0.85; Growth Rate (U2OS; 6 h, replicate number 2): 0.61; Growth Rate (HEK-293T; 0 h, replicate number 2): -0.72
O=C(Nc1cccc(C(F)(F)F)c1)c1cccc(-n2cc(-c3ccco3)nn2)c1 | -0.94 |  | 0.97 |  | 0.72 | 0.81 |  | 0.95 | 0.9 |  | 0.68 | 0.8 | 0.67 | 0.76 |  |  | 0.78 | 0.56 | 1 |  | Growth Rate (Fibroblast; 6 h, replicate number 1): 0.82; Growth Rate (U2OS; 0 h, replicate number 2): 0.15
H-LVVYPWT-OH [SPINORPHIN] | -0.78 | 0.52 | 0.41 | 0.44 | 0.61 | 0.43 | 0.82 | 0.66 |  | 0.92 | 0.99 |  |  |  |  | 0.38 | 0.76 |  |  |  | Growth Rate (Fibroblast; 0 h, replicate number 1): -0.25; Growth Rate (Fibroblast; 6 h, replicate number 1): -0.34; Growth Rate (Fibroblast; 6 h, replicate number 2): -0.61; Growth Rate (Fibroblast; 12 h, replicate number 1): -1; Growth Rate (Fibroblast; 18 h, replicate number 2): 0.87; Growth Rate (Fibroblast; 24 h, replicate number 2): 0.94; Growth Rate (U2OS; 0 h, replicate number 2): -1; Growth Rate (U2OS; 6 h, replicate number 2): 0.08; Growth Rate (HEK-293T; 0 h, replicate number 1): 0.9; Growth Rate (HEK-293T; 0 h, replicate number 2): 0.94
COCc1c(-c2cc3cc(C)cc(OC)c3s2)c2c(N)ncnn2c1CN[C@@H]1CCNC1=O |  |  | 0.46 |  | 0.62 | 0.77 | 0.84 | 0.85 | 0.44 | 0.9 | 0.47 | 0.43 | 0.61 | 0.62 | 0.65 | 0.59 | 0.45 | 0.58 | 0.2 | 0.49 | Growth Rate (Fibroblast; 0 h, replicate number 1): -1; Growth Rate (Fibroblast; 6 h, replicate number 1): 0.36; Growth Rate (Fibroblast; 12 h, replicate number 1): 0.6; Growth Rate (Fibroblast; 18 h, replicate number 2): 0.77; Growth Rate (Fibroblast; 24 h, replicate number 2): 0.98; Growth Rate (U2OS; 0 h, replicate number 2): 0.73; Growth Rate (HEK-293T; 0 h, replicate number 1): -0.25; Growth Rate (HEK-293T; 0 h, replicate number 2): -0.02
[2H]C([2H])([2H])NC(=O)c1nnc(NC(=O)C2CC2)cc1Nc1cccc(-c2ncn(C)n2)c1OC [DEUCRAVACITINIB] | 0 |  |  | 0.39 | 0.29 | 0.76 | 0.89 | 0.71 | 0.97 | 0.74 | 0.66 | 0.82 | 0.78 | 0.85 | 0.76 |  | 0.68 | 0.51 | 0.56 | 0.68 | Growth Rate (Fibroblast; 0 h, replicate number 1): 0.51; Growth Rate (Fibroblast; 18 h, replicate number 2): 0.85; Growth Rate (Fibroblast; 24 h, replicate number 2): 0.9; Growth Rate (U2OS; 6 h, replicate number 2): 0.63; Growth Rate (HEK-293T; 0 h, replicate number 2): 0.09

From ChEMBL document CHEMBL5303304, “EUbOPEN Chemogenomics Library - IncuCyte” (2023)
